From patent US11484561B2, “Morus extracts rich in N-acids of imino sugars and or pipecolic acids” (Phynova Limited, priority 2011, dated 2022)
pIC50: −log10 of the molar value.

Experiments:
Assay type in all cases: biochemical
α-D-glucosidase (Yeast) = molecular target: T1, α-D-glucosidase (Yeast) (Saccharomyces cerevisiae, UniProt P53341); assay: Glycosidase assay, α-D-glucosidase (Yeast); conditions: Table 16; % inhibition; concentration not given
T1 construct: purchased Sigma-Aldrich
Procedure: (§1) The assays used p-nitrophenyl-substrates and commercial enzymes purchased from Sigma-Aldrich. Enzymes were assayed at 27° C. in 0.1M citric acid/0.2M disodium hydrogen phosphate buffers at the optimum pH for the enzyme. The incubation mixture consisted of 10 μl enzyme solution, 10 μl of 10 mg/ml aqueous solution of extract and 50 μl of the appropriate 5 mM p-nitrophenyl substrate made up in buffer at the optimum pH for the enzyme. The reactions were stopped by addition of 70 μl 0.4M glycine (pH 10.4) during the exponential phase of the reaction, which had been determined at the beginning using uninhibited assays in which water replaced mulberry fractions. Final absorbances were read at 405 nm using a Versamax microplate reader (Molecular Devices). Assays were carried out in triplicate, and the values given are means of the three replicates per assay. Results are expressed as % inhibition.
(§2) Substrates are 10 mM p-nitrophenyl-glycopyranosides. Enzymes are purchased from Sigma and run at the pH optima

[1] = system: α-D-glucosidase (Bacillus); assay: Glycosidase assay, α-D-glucosidase (Bacillus); conditions: Table 16; % inhibition; concentration not given
Procedure: as §1, §2

[2] = molecular target: T2, β-D-galactosidase (bovine) (Bos taurus, UniProt Q58D55); assay: Glycosidase assay, β-D-galactosidase (bovine); conditions: Table 16; % inhibition; concentration not given
T2 construct: purchased Sigma-Aldrich
T2 sequence (Q58D55 28-653): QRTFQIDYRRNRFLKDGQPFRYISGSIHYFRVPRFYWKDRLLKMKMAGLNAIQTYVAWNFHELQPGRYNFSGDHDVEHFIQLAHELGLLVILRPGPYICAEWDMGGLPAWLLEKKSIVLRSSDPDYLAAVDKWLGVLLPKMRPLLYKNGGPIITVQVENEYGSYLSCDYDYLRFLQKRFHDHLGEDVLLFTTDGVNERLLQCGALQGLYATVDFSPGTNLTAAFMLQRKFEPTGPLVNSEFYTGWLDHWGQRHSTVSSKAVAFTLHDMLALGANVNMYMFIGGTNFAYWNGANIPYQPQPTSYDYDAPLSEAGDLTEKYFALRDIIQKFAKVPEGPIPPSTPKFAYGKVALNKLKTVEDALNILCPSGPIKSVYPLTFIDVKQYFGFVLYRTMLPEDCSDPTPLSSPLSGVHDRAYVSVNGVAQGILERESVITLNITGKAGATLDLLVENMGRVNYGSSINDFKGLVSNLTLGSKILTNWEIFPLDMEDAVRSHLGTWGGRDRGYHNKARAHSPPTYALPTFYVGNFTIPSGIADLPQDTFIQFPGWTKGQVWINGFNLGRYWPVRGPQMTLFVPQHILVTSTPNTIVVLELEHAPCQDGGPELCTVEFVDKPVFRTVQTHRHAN
Procedure: as §1, §2

[3] = molecular target: T3, α-D-mannosidase (Jack bean) (Canavalia ensiformis, UniProt C0HJB3); assay: Glycosidase assay, α-D-mannosidase (Jack bean); conditions: Table 16; % inhibition; concentration not given
T3 construct: purchased Sigma-Aldrich
T3 sequence (C0HJB3 1-562 limits assumed): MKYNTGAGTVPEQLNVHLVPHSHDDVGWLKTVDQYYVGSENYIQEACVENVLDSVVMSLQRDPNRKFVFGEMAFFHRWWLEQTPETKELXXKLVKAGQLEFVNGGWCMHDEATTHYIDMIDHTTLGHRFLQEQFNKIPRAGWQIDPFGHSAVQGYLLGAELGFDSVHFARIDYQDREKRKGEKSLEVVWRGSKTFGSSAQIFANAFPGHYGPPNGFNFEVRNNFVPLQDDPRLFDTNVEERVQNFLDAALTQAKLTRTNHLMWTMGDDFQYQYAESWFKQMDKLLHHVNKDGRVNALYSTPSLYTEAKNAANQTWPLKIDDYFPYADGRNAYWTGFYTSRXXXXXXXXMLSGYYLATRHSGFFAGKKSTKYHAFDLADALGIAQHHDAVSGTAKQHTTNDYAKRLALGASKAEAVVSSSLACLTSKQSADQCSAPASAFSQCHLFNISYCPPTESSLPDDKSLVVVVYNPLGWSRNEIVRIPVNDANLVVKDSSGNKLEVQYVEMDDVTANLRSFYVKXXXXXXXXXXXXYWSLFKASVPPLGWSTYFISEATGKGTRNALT
Procedure: as §1, with “The reactions were stopped by addition of 70 μl 0.4M glycine (pH 10.4) during the exponential phase of the reaction, which had been determined at the beginning using uninhibited assays in which water replaced mulberry fractions.” left out
as §2

[4] = system: N-acetyl-β-D-gluc (Bovine kidney); assay: Glycosidase assay, N-acetyl-β-D-gluc (Bovine kidney); conditions: Table 16; % inhibition; concentration not given
Procedure: as §1, §2

[5] = molecular target: T4, amyloglucosidase (A. niger) (Aspergillus niger, UniProt P69328); assay: Glycosidase assay, amyloglucosidase (A. niger); conditions: Table 16; % inhibition; concentration not given
T4 construct: purchased Sigma-Aldrich
Procedure: as §1, §2

β-D-glucosidase (yeast) = assay: Glycosidase assay, β-D-glucosidase (yeast); conditions: Table 16; % inhibition; concentration not given
Procedure: as §1

[6] = molecular target: T5, human recombinant α-L-iduronidase (Homo sapiens, UniProt P35475); assay: α-L-iduronidase inhibition
T5 sequence (P35475 28-653): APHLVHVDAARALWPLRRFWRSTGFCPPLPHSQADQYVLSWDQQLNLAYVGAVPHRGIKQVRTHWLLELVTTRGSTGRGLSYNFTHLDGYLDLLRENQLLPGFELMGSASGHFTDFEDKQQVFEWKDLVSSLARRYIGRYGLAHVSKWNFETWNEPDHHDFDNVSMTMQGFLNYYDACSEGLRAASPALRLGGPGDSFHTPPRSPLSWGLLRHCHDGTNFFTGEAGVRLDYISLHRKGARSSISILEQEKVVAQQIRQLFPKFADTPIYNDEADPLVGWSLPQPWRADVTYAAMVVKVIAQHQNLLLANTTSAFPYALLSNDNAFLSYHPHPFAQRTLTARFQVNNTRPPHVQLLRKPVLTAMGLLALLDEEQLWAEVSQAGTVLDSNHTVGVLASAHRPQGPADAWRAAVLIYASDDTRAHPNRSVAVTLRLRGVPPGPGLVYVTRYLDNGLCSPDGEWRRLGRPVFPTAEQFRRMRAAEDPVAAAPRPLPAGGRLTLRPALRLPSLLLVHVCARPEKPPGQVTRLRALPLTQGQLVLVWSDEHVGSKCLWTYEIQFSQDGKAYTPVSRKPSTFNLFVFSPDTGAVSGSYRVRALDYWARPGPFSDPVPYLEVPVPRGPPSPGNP

T4 sequence (P69328 25-640): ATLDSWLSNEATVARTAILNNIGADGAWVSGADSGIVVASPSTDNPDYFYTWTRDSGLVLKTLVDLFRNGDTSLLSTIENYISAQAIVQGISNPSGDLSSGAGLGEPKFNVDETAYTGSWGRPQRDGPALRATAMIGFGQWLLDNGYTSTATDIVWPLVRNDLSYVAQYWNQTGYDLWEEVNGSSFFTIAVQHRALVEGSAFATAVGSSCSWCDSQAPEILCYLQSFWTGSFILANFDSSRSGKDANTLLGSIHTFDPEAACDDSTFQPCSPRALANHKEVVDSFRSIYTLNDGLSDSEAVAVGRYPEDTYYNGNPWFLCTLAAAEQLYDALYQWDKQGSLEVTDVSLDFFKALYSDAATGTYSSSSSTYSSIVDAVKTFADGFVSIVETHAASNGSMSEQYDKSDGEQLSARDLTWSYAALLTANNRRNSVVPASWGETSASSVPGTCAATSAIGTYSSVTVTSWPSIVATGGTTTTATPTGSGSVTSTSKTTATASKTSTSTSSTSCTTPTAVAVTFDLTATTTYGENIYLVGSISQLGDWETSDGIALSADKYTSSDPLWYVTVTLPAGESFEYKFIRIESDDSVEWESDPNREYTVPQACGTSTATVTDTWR
T1 sequence (P53341 whole entry): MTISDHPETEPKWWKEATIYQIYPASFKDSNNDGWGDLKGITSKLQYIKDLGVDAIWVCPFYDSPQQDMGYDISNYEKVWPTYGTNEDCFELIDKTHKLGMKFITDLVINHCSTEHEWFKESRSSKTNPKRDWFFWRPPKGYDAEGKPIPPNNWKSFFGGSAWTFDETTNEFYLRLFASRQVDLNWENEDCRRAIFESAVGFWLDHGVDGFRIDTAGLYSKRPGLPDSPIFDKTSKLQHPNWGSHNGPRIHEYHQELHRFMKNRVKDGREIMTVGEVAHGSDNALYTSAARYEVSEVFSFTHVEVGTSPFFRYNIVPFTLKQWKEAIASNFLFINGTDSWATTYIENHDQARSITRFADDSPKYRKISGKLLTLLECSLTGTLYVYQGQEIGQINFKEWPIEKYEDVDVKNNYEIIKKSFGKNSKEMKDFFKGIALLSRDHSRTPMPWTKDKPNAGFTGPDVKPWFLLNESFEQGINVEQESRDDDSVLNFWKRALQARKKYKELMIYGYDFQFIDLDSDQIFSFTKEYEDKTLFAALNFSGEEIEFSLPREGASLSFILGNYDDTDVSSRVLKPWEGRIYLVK

Compound | α-D-glucosidase (Yeast) (α-D-glucosidase (Yeast)) [%] | α-D-glucosidase (Bacillus) [1] [%] | β-D-galactosidase (Bovine) [2] [%] | α-D-mannosidase (Jack bean) [3] [%] | N-acetyl-β-D-gluc (Bovine kidney) [4] [%] | Amyloglucosidase [5] [%] | β-D-glucosidase (yeast) (β-D-glucosidase (yeast)) [%] | pIC50 [6] | inhibition of the iduronidase, in words ([6]; at 0.8 mM)
OC[C@H]1NC[C@H](O)[C@@H](O)[C@@H]1O [DNJ, 1 deoxynojirmycin] | 36 | 100 | 0 | 27 | 0 | 32 | 64 |  | 
O=C(O)CN1C[C@@H](O)[C@H](O)[C@H]1CO [DAB-N-ethanoic, DAB-N-ethanoic acid] | 10.7 | 24.2 | 0 | 28 | 82 | −2 | 7 | 3.71 | 
O=C(O)CCN1C[C@H](O)[C@@H](O)[C@H](O)[C@H]1CO [DNJ-N-propanoic, DNJ-N-propanoic acid] | 0.0 | 45.0 | 12 | 40 | 86 | 53 | 32 | 3.42 | 
O=C(O)CN1C[C@H](O)[C@@H](O)[C@H](O)[C@H]1CO [DNJ-N-ethanoic, DNJ-ethanoic acid] | 2.5 | 9.1 | 2 | 38 | 84 | 0 | 14 |  | only weakly inhibits
